The record followed here is ChEMBL document CHEMBL1649515, “Heteroresistance to fluconazole in Cryptococcus neoformans is intrinsic and associated with virulence” (2009).

By MIC is commonly meant the lowest concentration found to suppress growth.

The test system of one test is Burkholderia sp. The test can be described thus: Antimicrobial activity against Burkholderia sp. at 8 to 32 ug/ml. In kind it is functional.
Another test has as its system Aspergillus fumigatus. The test can be described thus: Antimicrobial activity against Aspergillus fumigatus at 8 to 32 ug/ml. In kind it is functional, organism-based.
A further test deals with Streptomyces platensis. In words: Antimicrobial activity against Streptomyces platensis at 8 to 32 ug/ml. In kind it is functional.
The test system of test [1] is Cryptococcus neoformans. In words: Antimicrobial activity against Cryptococcus neoformans serotype D. The format is functional.
The subject of test [2] is Cryptococcus neoformans. In words: Antimicrobial activity against Cryptococcus neoformans serotype A. The format is functional.

Active and inactive are the calls of the source. The rule behind the calls is not given here.

With `OC(Cn1cncn1)(Cn1cncn1)c1ccc(F)cc1F` [FLUCONAZOLE], the result in the test with Burkholderia sp., with Aspergillus fumigatus and with Streptomyces platensis was inactive. The MIC against Cryptococcus neoformans [1] and with Cryptococcus neoformans [2] was at least 64 µg/mL in each case.
